What all share (assay): NCI-60 cell line screen, 48 h
Experiment [1] deals with MOLT-4 leukemia.
The test system of experiment [2] is MALME-3M melanoma.
Experiment [3] relates to NCI-H23 lung.
Experiment [4] concerns U251 CNS.
Experiment [5] has as its system RPMI-8226 leukemia.
Experiment [6] deals with M19-MEL melanoma.
Experiment [7] relates to DLD-1 colon.
Experiment [8] concerns HCC-2998 colon.
For experiment [9], the system named is MCF7 breast.
For experiment [10], the system named is BT-549 breast.

Molecules are shown by their SMILES.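 Growth conditions: 96-well plates. Treatment: test compound, 48 hours, 5 concentrations. Analysis: linear interpolation between bracketing concentrations; unreached endpoints set to highest concentration. GI50 = concentration required for 50% inhibition of growth. TGI denotes the concentration required for complete inhibition of growth.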

Take `CC(=O)N/N=C1\CC(C)(C)C2CCC1C2` (stereo unspecified): the TGI in [1], in experiment [2], in experiment [3], in experiment [4], in [5] and in experiment [6] was more than 100 µM throughout.

Regarding `COc1ccc(NC(=O)CC2SC(=Nc3ccccc3C)NC2=O)c([N+](=O)[O-])c1` (stereo unspecified), the TGI in experiment [1], in [2], in experiment [7], in experiment [3], in [4] and in [5] was more than 100 µM in each case. Further, the TGI in [6] and in [8] was more than 100 µM each time.

As for `CC1/C=C/[C@@]2(C)CCC(C(C)(C)O)C2C(O)C[C@](C)(O)/C=C/C1` (stereo partly specified), the TGI in experiment [1], in experiment [2], in experiment [7], in [3], in [4] and in [5] was more than 100 µM in each case. The compound also returned a TGI in experiment [8] of more than 100 µM.

Consider `O=c1/c(=C/c2ccccc2[N+](=O)[O-])sc2nc3ccccc3n12`, for which the TGI in experiment [1] was more than 46.4 µM; in experiment [2] it was more than 46.4 µM; in experiment [7], 37.3 µM; in [3], more than 46.4 µM; in experiment [4] it was 41.9 µM; in experiment [5], 20.1 µM. Besides, the TGI in [6] and in experiment [8] was more than 46.4 µM each time.

With `Cc1ccc(NC(=O)CCc2nc(N)nc(N)c2-c2ccccc2)cc1C`, the TGI in [1], in experiment [2], in experiment [7], in [3], in experiment [4] and in experiment [5] was more than 100 µM each time. The TGI in experiment [6] and in experiment [8] was more than 100 µM throughout.

For the compound `C=CCNc1nc2c(s1)C(=O)c1ccccc1C2=O`, the TGI is 10.6 µM in experiment [1]; 25.6 µM in experiment [2]; 21.8 µM in experiment [3]; 20.1 µM in [4]; 17.4 µM in experiment [5]; 3.22 µM in experiment [6]. For the same compound, the TGI in experiment [9] amounted to 24.4 µM; in experiment [8], 35.3 µM.

For `CC1=Nc2c(ccc3c2C(=O)c2ccccc2C3=O)NC(c2cccc3c2CCC3)C1` (stereo unspecified), the TGI in experiment [1], in experiment [2], in experiment [7], in [3], in experiment [4] and in [5] was more than 100 µM in each case. Also, the values for the TGI in experiment [6] and in experiment [8] were more than 72.6 µM and more than 100 µM, respectively.

With `COc1ccc(OC)c(NC(=O)CCC/C(CC(=O)c2ccc(O)c(OC)c2)=N\Nc2nnc(C)n2N)c1`, the TGI in experiment [1], in experiment [2], in experiment [7], in experiment [3], in [4] and in [5] was more than 100 µM throughout. The TGI in experiment [6] and in experiment [8] was more than 100 µM each time.

As to `Cc1nn[n-]n1.N.N.N.N.N.[Cl-].[Co+3]`, the GI50 in experiment [1], in experiment [2], in [7], in experiment [3], in [4] and in experiment [5] was more than 100 µM each time. In experiment [8], the GI50 was more than 100 µM. The TGI in experiment [1], in experiment [2], in experiment [7], in [3], in [4] and in experiment [5] was more than 100 µM each time. This compound also had a TGI in experiment [8] of more than 100 µM.

On to `CCC1CC2C(=O)N(c3ccccc3)C(=O)C2c2[nH]c3ccccc3c21` (stereo unspecified), for which the TGI in experiment [1] was more than 100 µM; in experiment [2], 38.7 µM; in experiment [7] it was more than 100 µM; in experiment [3] it was more than 100 µM; in experiment [4], more than 100 µM; in experiment [5], more than 100 µM. Further, the TGI in [6] is 79.9 µM; in experiment [8], more than 100 µM.

`COC12CCC(=O)C=C1c1ccccc1N2C(C)=O` (stereo unspecified): the TGI in experiment [1], in experiment [7], in experiment [3], in experiment [4], in [5] and in [6] was more than 100 µM each time. Moreover, the TGI in [8] is more than 100 µM.

`CCCNC(=O)C1C(=O)C(=O)N(CCC)C1=O` (stereo unspecified): the TGI in [1], in [2], in experiment [7], in experiment [3], in experiment [4] and in experiment [5] was more than 100 µM each time. In addition, the TGI in experiment [6] and in experiment [8] was more than 100 µM each time.

Regarding `C=C(CC(NC(=O)c1ccc(C(CC)Cc2cnc3nc(N)nc(N)c3n2)cc1)C(=O)O)C(=O)O` (stereo unspecified), the TGI in experiment [1], in experiment [7], in experiment [3], in [4] and in experiment [5] was more than 100 µM in each case. Moreover, the GI50 in [8] was 0.0265 µM.

As to `O=C(CCC(=O)Nc1ccc(Cl)c(Cl)c1)CC(=O)c1ccc(Br)cc1`, the TGI in experiment [1], in experiment [2], in experiment [7], in [3], in experiment [4] and in experiment [5] was more than 100 µM each time. The same compound returned a TGI in experiment [6] of more than 100 µM.

For `CCOC(=O)C1=C(Nc2ccc(Cl)cc2Cl)OCC1=O`, the TGI in experiment [1], in experiment [2], in [7], in experiment [3], in [4] and in [5] was more than 100 µM throughout. Also, the TGI in experiment [6] and in experiment [8] was more than 100 µM throughout.

In the case of `CC1=CC(=O)CC2(C)CC[C@@H]3C[C@]12OC3(C)C` (stereo partly specified), the TGI in experiment [1], in experiment [2], in experiment [7], in experiment [3], in experiment [4] and in experiment [5] was more than 100 µM each time. Moreover, the TGI in experiment [6] and in experiment [8] was more than 100 µM throughout.

With `COc1ccc(NC(=O)/C(=C/c2ccccc2)C(C)=O)cc1`, the TGI amounted to 32.6 µM in [1]; 32.3 µM in experiment [2]; 28.7 µM in experiment [7]; 29.4 µM in [4]; 24.8 µM in experiment [5]; 29.9 µM in experiment [6]. In experiment [8], this compound yielded a TGI of 33.5 µM.

As for `Cc1ccccc1NC(=O)c1cc(-c2ccc([N+](=O)[O-])cc2)nc(=S)[nH]1`, the TGI in experiment [1], in experiment [2], in [7], in experiment [3], in [4] and in experiment [8] was more than 100 µM throughout.

`N/N=C1\C(=O)N(C2CCCCCC2)C(=O)C1C(=O)NC1CCCCCC1` (stereo unspecified): the TGI is 55.7 µM in [1]; 45.3 µM in experiment [2]; more than 100 µM in experiment [7]; 52.1 µM in [3]; 31.7 µM in experiment [4]; more than 100 µM in experiment [6]. Moreover, in experiment [8], the TGI amounted to 43.9 µM.

As to `O=C(Cc1nc2ccccc2c(=O)n1-c1ccccc1Cl)c1ccncc1`, the TGI in [1], in experiment [2], in experiment [7], in experiment [3], in experiment [4] and in experiment [6] was more than 100 µM throughout. Moreover, in experiment [8], the TGI was more than 100 µM.

Take `N#Cc1ccccc1C(Cl)(Cl)c1cnccn1`: the TGI in [1] was 69.7 µM; in experiment [7], more than 100 µM; in [3], more than 100 µM; in experiment [4], more than 100 µM; in [6], more than 100 µM; in experiment [8] it was more than 100 µM.

`COC/C=C\COC`: the TGI in [1], in [2], in [7], in [4], in experiment [5] and in experiment [6] was more than 100 µM each time. In addition, in [8], the TGI is more than 100 µM.

For `Cc1nc(-c2ccccc2)n2nc(NCCCN3CCOCC3)ncc12`, the GI50 in experiment [10] was more than 25 µM; in [1], more than 25 µM; in experiment [2] it was more than 17.9 µM; in [3], more than 25 µM; in experiment [4], more than 25 µM; in [5], more than 25 µM. The GI50 in [9] and in [8] was more than 25 µM in each case. Also, the TGI in [10], in experiment [1], in [2], in [3], in experiment [4] and in experiment [5] was more than 25 µM each time. The TGI in experiment [9] and in experiment [8] was more than 25 µM each time.

As to `CCOC(=O)Nc1nc2ccc(OC)cc2s1`, the GI50 in experiment [10], in [1], in [2], in [3], in experiment [4] and in experiment [5] was more than 100 µM throughout. Further, the GI50 in experiment [9] and in [8] was more than 100 µM each time. For the same compound, the TGI in experiment [10], in [1], in [2], in experiment [3], in experiment [4] and in [5] was more than 100 µM in each case. Besides, the TGI in experiment [9] and in [8] was more than 100 µM throughout.

As for `CC(=O)Oc1ccc(C23c4ccccc4C2(OC(C)=O)c2cc(OC(C)=O)ccc23)cc1` (stereo unspecified), the GI50 in [10] is 2.76 µM; in [1], 7.27 µM; in [2] it was 9.61 µM; in experiment [3], 10.2 µM; in [4], 2.34 µM; in [5], 2.29 µM. Further, the GI50 in experiment [9] was 16.6 µM; in experiment [8], 2.91 µM. In addition, the TGI in [10] stood at 6.49 µM; in [1], 72.2 µM; in experiment [2] it was 27.3 µM; in experiment [3], 28.5 µM; in experiment [4], 5.63 µM; in experiment [5], 6.66 µM. Besides, the TGI was more than 100 µM in experiment [9] and 8.46 µM in experiment [8].

Regarding `CC(Oc1ccc2c(-c3ccccc3)cc(=O)oc2c1)C(=O)O` (stereo unspecified), the TGI in [1], in experiment [2], in [7], in experiment [3], in experiment [4] and in [6] was more than 100 µM each time. In addition, the TGI in [8] is more than 100 µM.

With `CC1=C[C@H]2c3c([nH]c4ccccc34)C(c3c[nH]c4ccccc34)[C@H]2CC1` (stereo partly specified), the TGI was 5.89 µM in [1]; 35.1 µM in [2]; 19.1 µM in experiment [7]; 16.3 µM in experiment [4]; 12 µM in [5]; 22.9 µM in [6]. This compound also registered a TGI in experiment [8] of 12.4 µM.

In the case of `Nc1ccccc1C#C/C=C\C#Cc1ccc(OCCCNC(=O)c2cc3ccccc3[nH]2)cc1`, the GI50 in experiment [10] is 9.23 µM; in experiment [1], 49.4 µM; in experiment [2], 1.08 µM; in experiment [3], 7.62 µM; in [4], 12.5 µM; in experiment [5] it was 1.01 µM. The GI50 in experiment [9] was 1.26 µM; in [8], 31.5 µM. The TGI in experiment [10] was more than 100 µM; in [1] it was more than 100 µM; in [2], 18.3 µM; in experiment [3] it was 43.6 µM; in [4], 25 µM; in experiment [5], 17.6 µM. Moreover, the TGI in [9] was 7.15 µM; in experiment [8], more than 100 µM.

With `Nc1nonc1-c1nc2cnccc2n1C1CC1`, the GI50 in [10] is 3.85 µM; in experiment [1], 12.1 µM; in experiment [2] it was more than 15.9 µM; in [3], 7.3 µM; in experiment [4], 9.09 µM; in experiment [5] it was 6.46 µM. The values for the GI50 in experiment [9] and in [8] were 6.05 µM and 12.4 µM, respectively. Besides, the TGI in [10] is 19.2 µM; in experiment [1], more than 25 µM; in experiment [2] it was more than 25 µM; in experiment [3], more than 25 µM; in [4], more than 25 µM; in experiment [5], 24.4 µM. Besides, the results for the TGI in experiment [9] and in experiment [8] were more than 17.3 µM and more than 25 µM, respectively.
